Experimental data taken from US10759781B2, “Substituted guanidine derivatives” (UBE INDUSTRIES, LTD., priority 2015, dated 2020).
Structures can show the parent of a compound that is named as a salt.

What was measured:
Human VAP-1 enzyme = target: T1, Human VAP-1 enzyme (Homo sapiens, UniProt Q16853); assay: Human VAP-1 enzyme inhibition test; type: biochemical; conditions: 1 h; compound 30 nM; 14C-benzylamine 100 μM; read-out: inhibition ratio (human VAP-1 enzyme)
T1 construct: purchased R&D Systems, Inc
T1 sequence (Q16853 1-763): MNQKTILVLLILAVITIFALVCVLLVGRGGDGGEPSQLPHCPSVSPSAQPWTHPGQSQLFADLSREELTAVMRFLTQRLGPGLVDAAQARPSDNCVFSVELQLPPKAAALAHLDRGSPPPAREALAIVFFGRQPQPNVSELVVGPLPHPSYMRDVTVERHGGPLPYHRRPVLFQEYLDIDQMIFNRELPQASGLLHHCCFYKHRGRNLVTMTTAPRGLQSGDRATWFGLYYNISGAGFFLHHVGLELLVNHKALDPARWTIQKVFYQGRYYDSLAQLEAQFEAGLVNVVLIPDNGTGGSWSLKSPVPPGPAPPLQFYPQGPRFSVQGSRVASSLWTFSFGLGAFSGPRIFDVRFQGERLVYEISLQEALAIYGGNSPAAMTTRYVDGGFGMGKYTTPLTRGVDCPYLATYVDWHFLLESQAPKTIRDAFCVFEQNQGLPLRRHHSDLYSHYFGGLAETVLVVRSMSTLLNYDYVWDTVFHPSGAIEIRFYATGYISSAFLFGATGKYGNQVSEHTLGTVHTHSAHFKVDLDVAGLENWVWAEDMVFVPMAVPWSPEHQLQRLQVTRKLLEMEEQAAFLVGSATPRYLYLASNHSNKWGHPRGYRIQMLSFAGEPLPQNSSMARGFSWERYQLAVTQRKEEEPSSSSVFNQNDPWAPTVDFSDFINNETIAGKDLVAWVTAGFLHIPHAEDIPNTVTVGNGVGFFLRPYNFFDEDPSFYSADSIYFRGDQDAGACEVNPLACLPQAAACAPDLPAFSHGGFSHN
Method in brief: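 Activity measured as radioactive oxidation product of 14C-benzylamine (100 μM final), extracted with toluene/ethyl acetate after citric acid stop and scintillation-counted. Enzyme (recombinant human VAP-1) first exposed to compound 20 min at room temperature, reaction then 1 h at 37 °C. Percent inhibition versus DMSO control.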

Rat Plasma VAP-1 = target: T2, Rat Plasma VAP-1 (Rattus norvegicus, UniProt O08590); assay: (Ex vivo) rat plasma VAP-1 inhibition test after oral administration of the compound; type: in vivo; conditions: 3 hours after oral administration, SD male rats, read-out: inhibition ratio (plasma VAP-1, ex vivo)
T2 construct: from tissue; host or cells: plasma of SD male rats (7-12 weeks old) after oral dosing
T2 sequence (O08590 28-763 limits assumed): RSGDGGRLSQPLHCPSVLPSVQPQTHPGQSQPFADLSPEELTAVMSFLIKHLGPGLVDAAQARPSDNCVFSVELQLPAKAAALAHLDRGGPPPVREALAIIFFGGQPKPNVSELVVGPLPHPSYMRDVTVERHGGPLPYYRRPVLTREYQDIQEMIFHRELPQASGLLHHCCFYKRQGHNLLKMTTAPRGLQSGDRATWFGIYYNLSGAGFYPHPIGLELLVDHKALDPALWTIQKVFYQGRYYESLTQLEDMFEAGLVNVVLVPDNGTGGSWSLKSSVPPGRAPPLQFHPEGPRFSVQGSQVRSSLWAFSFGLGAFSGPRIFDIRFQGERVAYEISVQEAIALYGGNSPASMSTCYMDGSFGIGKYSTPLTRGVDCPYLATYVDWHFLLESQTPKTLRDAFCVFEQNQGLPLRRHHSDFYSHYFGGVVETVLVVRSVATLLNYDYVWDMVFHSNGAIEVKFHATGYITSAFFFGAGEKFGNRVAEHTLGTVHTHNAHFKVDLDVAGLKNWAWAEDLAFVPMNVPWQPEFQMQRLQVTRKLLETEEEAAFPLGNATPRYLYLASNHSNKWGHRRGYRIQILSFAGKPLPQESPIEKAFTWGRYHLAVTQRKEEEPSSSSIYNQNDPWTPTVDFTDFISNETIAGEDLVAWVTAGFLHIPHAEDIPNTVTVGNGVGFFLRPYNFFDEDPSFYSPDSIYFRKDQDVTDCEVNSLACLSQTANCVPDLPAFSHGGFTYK
Protocol: (Ex Vivo) Rat Plasma VAP-1 Inhibition Test after Oral Administration of the Compound
The compound was orally administered (0.3-10 mg/kg) to 7-12 week old SD male rats in the non-fasting state. Under anesthesia, the blood was collected in heparin tubes from the jugular vein before the administration and 3, 8 and 24 hours after the administration. The blood was centrifuged at 14000 rpm for 10 minutes to get plasma. The VAP-1 enzyme activity in the plasma was measured by radiochemical enzyme assay.
The radiochemical enzyme assay was conducted by modifying the method of P. H. Yu et al. (Diabetologia 40 1243 (1997)). ^14C-benzylamine (2.5 μM) was added to the obtained plasma, and was incubated at 37° C. for 3 hours. The reaction was terminated by the addition of 100 μL of 2 M citric acid solution to the reaction solution. The oxidative product was extracted using a toluene/ethyl acetate mixture and the radioactivity was measured with a liquid scintillation counter. The inhibition ratio of the compound was calculated using the following equation. Inhibition ratio={1−[Plasma VAP-1 activity after administration of the compound]/[Plasma VAP-1 activity before administration]}×100

inhibition at 0.03 µM (Human VAP-1 enzyme) [%] | inhibition in vivo at 0.3 mg/kg (Rat Plasma VAP-1) [%] | Compound
≥ 50 | ≥ 50 | N#CCCON=C1CCN(c2ncc(-c3cccc(COC(=O)NC(=N)N)c3F)cn2)CC1 [Example 165, 3-(2-{4-[(2-Cyanoethoxy)imino]piperidin-1-yl}pyrimidin-5-yl)-2-fluorobenzyl carbamimidoylcarbamate]
≥ 50 | ≥ 50 | N=C(N)NC(=O)OCc1cccc(-c2cnc(N3CCC(=NOCC(O)CO)CC3)nc2)c1F (centres unmarked) [Example 99, 3-(2-{4-[(2,3-Dihydroxypropoxy)imino]piperidin-1-yl}pyrimidin-5-yl)-2-fluorobenzyl carbamimidoylcarbamate]
≥ 50 | ≥ 50 | N=C(N)NC(=O)OCc1cccc(-c2cnc(N3CCC(=NOCCCO)CC3)nc2)c1F [Example 86, 2-Fluoro-3-(2-{4-[(3-hydroxypropoxy)imino]piperidin-1-yl}pyrimidin-5-yl)benzyl carbamimidoylcarbamate hydrochloride]
≥ 50 | ≥ 50 | N=C(N)NC(=O)OCc1cccc(-c2cnc(N3CCC(=NOCc4cn[nH]c4)CC3)nc2)c1F [Example 173, 3-[2-(4-{[(1H-pyrazol-4-yl)methoxy]imino}piperidin-1-yl)pyrimidin-5-yl]-2-fluorobenzyl carbamimidoylcarbamate]
≥ 50 | ≥ 50 | CC(CO)CON=C1CCN(c2ncc(-c3cccc(COC(=O)NC(=N)N)c3F)cn2)CC1 (centres unmarked) [Example 91, 2-Fluoro-3-(2-{4-[(3-hydroxy-2-methylpropoxy)imino]piperidin-1-yl}pyrimidin-5-yl)benzyl carbamimidoylcarbamate]
≥ 50 | ≥ 50 | N=C(N)NC(=O)OCc1cccc(-c2cnc(N3CCC(=NOCc4cc[nH]n4)CC3)nc2)c1F [Example 171, 3-[2-(4-{[(1H-pyrazol-3-yl)methoxy]imino}piperidin-1-yl)pyrimidin-5-yl]-2-fluorobenzyl carbamimidoylcarbamate]
≥ 50 | ≥ 50 | Cn1ccc(CON=C2CCN(c3ncc(-c4cccc(COC(=O)NC(=N)N)c4F)cn3)CC2)n1 [Example 169, 2-Fluoro-3-[2-(4-{[(1-methyl-1H-pyrazol-3-yl)methoxy]imino}piperidin-1-yl)pyrimidin-5-yl]benzyl carbamimidoylcarbamate]
≥ 50 | ≥ 50 | Cn1cc(CON=C2CCN(c3ncc(-c4cccc(COC(=O)NC(=N)N)c4F)cn3)CC2)cn1 [Example 174, 2-Fluoro-3-[2-(4-{[(1-methyl-1H-pyrazol-4-yl)methoxy]imino}piperidin-1-yl)pyrimidin-5-yl]benzyl carbamimidoylcarbamate]

The next lines start with the compound.

Compound | inhibition at 0.03 µM (Human VAP-1 enzyme) [%] | inhibition in vivo at 0.3 mg/kg (Rat Plasma VAP-1) [%]
COCCON=C1CN(c2ncc(-c3cccc(COC(=O)NC(=N)N)c3F)cn2)C1 [Example 12, 2-Fluoro-3-(2-{3-[(2-methoxyethoxy)imino]azetidin-1-yl}pyrimidin-5-yl)benzyl carbamimidoylcarbamate] | ≥ 50 | ≥ 50
N=C(N)NC(=O)OCc1cccc(-c2cnc(N3CC(=NOCCCO)C3)nc2)c1F [Example 72, 2-Fluoro-3-(2-{3-[(3-hydroxypropoxy)imino]azetidin-1-yl}pyrimidin-5-yl)benzyl carbamimidoylcarbamate] | ≥ 50 | ≥ 50
CC(=O)N(C)CCON=C1CCN(c2ncc(-c3cccc(COC(=O)NC(=N)N)c3F)cn2)CC1 [Example 156, 2-Fluoro-3-[2-(4-{[2-(N-methylacetamido)ethoxy]imino}piperidin-1-yl)pyrimidin-5-yl]benzyl carbamimidoylcarbamate] | ≥ 50 | ≥ 50
N=C(N)NC(=O)OCc1cccc(-c2cnc(N3CCC(=NO)CC3)nc2)c1F [Example 105, 2-Fluoro-3-{2-[4-(hydroxyimino)piperidin-1-yl]pyrimidin-5-yl}benzyl carbamimidoylcarbamate hydrochloride] | ≥ 50 | ≥ 50
N=C(N)NC(=O)OCc1cccc(-c2cnc(N3CCC(=NOc4ncccn4)CC3)nc2)c1F [Example 183, 2-Fluoro-3-(2-{4-[(pyrimidin-2-yloxy)imino]piperidin-1-yl}pyrimidin-5-yl)benzyl carbamimidoylcarbamate] | ≥ 50 | ≥ 50
CS(=O)(=O)NCCON=C1CCN(c2ncc(-c3cccc(COC(=O)NC(=N)N)c3F)cn2)CC1 [Example 159, 2-Fluoro-3-[2-(4-{[2-(methylsulfonamido)ethoxy]imino}piperidin-1-yl)pyrimidin-5-yl]benzyl carbamimidoylcarbamate] | ≥ 50 | ≥ 50
N=C(N)NC(=O)OCc1cccc(-c2cnc(N3CCC(=NOCCCC(=O)O)CC3)nc2)c1F [Example 153, 4-[({1-[5-(3-{[(Carbamimidoylcarbamoyl)oxy]methyl}-2-fluorophenyl)pyrimidin-2-yl]piperidin-4-ylidene}amino)oxy]butanoic acid] | ≥ 50 | ≥ 50
CC(=O)NCCON=C1CCN(c2ncc(-c3cccc(COC(=O)NC(=N)N)c3F)cn2)CC1 [Example 155, 3-(2-{4-[(2-Acetamidoethoxy)imino]piperidin-1-yl}pyrimidin-5-yl)-2-fluorobenzyl carbamimidoylcarbamate] | ≥ 50 | ≥ 50
CC(CO)(CO)CON=C1CCN(c2ncc(-c3cccc(COC(=O)NC(=N)N)c3F)cn2)CC1 [Example 98, 2-Fluoro-3-[2-(4-{[3-hydroxy-2-(hydroxymethyl)-2-methylpropoxy]imino}piperidin-1-yl)pyrimidin-5-yl]benzyl carbamimidoylcarbamate] | ≥ 50 | ≥ 50
CC(=O)OCCON=C1CCN(c2ncc(-c3cccc(COC(=O)NC(=N)N)c3F)cn2)CC1 [Example 68, 2-[({1-[5-(3-{[(Carbamimidoylcarbamoyl)oxy]methyl}-2-fluorophenyl)pyrimidin-2-yl]piperidin-4-ylidene}amino)oxy]ethyl acetate] | ≥ 50 | ≥ 50
N=C(N)NC(=O)OCc1cccc(-c2cnc(N3CCC(=NOc4cncnc4)CC3)nc2)c1F [Example 182, 2-Fluoro-3-(2-{4-[(pyrimidin-5-yloxy)imino]piperidin-1-yl}pyrimidin-5-yl)benzyl carbamimidoylcarbamate] | ≥ 50 | ≥ 50
